Source: patent publication US5952204A, “β-fructofuranosidase, its preparation and uses” (priority 1995, dated 1999)

The molecules below were run on β-fructofuranosidase (assay: Acceptor specificity (TLC, sucrose as donor)). Settings: summary of Table 1.
Format: biochemical, Bacillus sp. V230 (FERM BP-5054)
Experimental: A saccharide solution with a final concentration of 10%, which consists of one of the monosaccharides, oligosaccharides, and alcohols in Table 1, and an equal amount of sucrose as a donor, d.s.b., was mixed with 2 units/g sucrose of a purified β-fructofuranosidase obtained by the method in Experiment 2, and allowed to react enzymatically at 40° C. and pH 5.5 for 24 hours. The mixtures before the enzymatic reaction and the reaction mixtures after the enzymatic reaction were subjected to TLC similarly as in Experiment 4, and the saccharides were colored by spraying 0.5-N phosphoric acid containing 0.2 w/v % naphthoresorcinol and heating at 110° C. for about 5 min to check the formation of transferred saccharides.
`OC[C@H]1O[C@H](O[C@H]2[C@H](O)[C@@H](O)[C@@H](O[C@H]3[C@H](O)[C@@H](O)C(O)O[C@@H]3CO)O[C@@H]2CO)[C@H](O)[C@@H](O)[C@@H]1O` (some centres unmarked) [Maltotriose] was tested, and the “Transfer of fructosyl residue to the acceptor (in words)” value (“Transfer of fructosyl residue” below) was “effectively transfers”. With `OC[C@H]1O[C@H](OC[C@H]2O[C@H](O[C@H]3[C@H](O)[C@@H](O)C(O)O[C@@H]3CO)[C@H](O)[C@@H](O)[C@@H]2O)[C@H](O)[C@@H](O)[C@@H]1O` (some centres unmarked) [Panose] the “Transfer of fructosyl residue” value was “effectively transfers”. In the case of `OCC(O)CO` [Glycerol], the “Transfer of fructosyl residue” value is reported as “effectively transfers”. In the case of `OC[C@H]1O[C@@H](O[C@H]2[C@H](O)[C@@H](O)C(O)O[C@@H]2CO)[C@H](O)[C@@H](O)[C@H]1O` (some centres unmarked) [Lactose], the “Transfer of fructosyl residue” value is reported as “effectively transfers”. For `OC[C@@H](O)[C@@H](O[C@H]1O[C@H](CO)[C@@H](O)[C@H](O)[C@H]1O)[C@H](O)[C@@H](O)CO` [Maltitol], the “Transfer of fructosyl residue” value was “effectively transfers”. In the case of `OC[C@H]1O[C@@H](O[C@H]2[C@H](O)[C@@H](O)C(O)O[C@@H]2CO)[C@H](O)[C@@H](O)[C@@H]1O` (some centres unmarked) [Cellobiose], the “Transfer of fructosyl residue” value is reported as “effectively transfers”. With `OCCO` [Ethylene glycol] the “Transfer of fructosyl residue” value was “effectively transfers”. `OC[C@H]1O[C@H](O[C@H]2O[C@H](CO)[C@@H](O)[C@H](O)[C@H]2O)[C@H](O)[C@@H](O)[C@@H]1O` [Trehalose] was tested, and the “Transfer of fructosyl residue” value was “effectively transfers”. For `O=C[C@H](O)[C@@H](O)[C@H](O)CO` [D-Xylose], the “Transfer of fructosyl residue” value was “effectively transfers”. In the case of `OC[C@@H](O)[C@@H](O)[C@H](O)[C@@H](O)CO` [D-Sorbitol], the “Transfer of fructosyl residue” value is reported as “effectively transfers”. For `OC[C@@H](O)[C@H](O)[C@@H](O)CO` [D-Xylitol], the “Transfer of fructosyl residue” value was “effectively transfers”. With `O=C[C@H](O)[C@@H](O)[C@@H](O)[C@H](O)CO` [D-Galactose] the “Transfer of fructosyl residue” value was “effectively transfers”. For `OC[C@H]1O[C@H](OC[C@H]2OC(O)[C@H](O)[C@@H](O)[C@@H]2O)[C@H](O)[C@@H](O)[C@@H]1O` (some centres unmarked) [Isomaltose], the “Transfer of fructosyl residue” value was “effectively transfers”. In the case of `OC[C@H]1O[C@H](O[C@H]2[C@H](O)[C@@H](O)[C@H](O)O[C@@H]2CO)[C@H](O)[C@@H](O)[C@@H]1O` [Maltose], the “Transfer of fructosyl residue” value is reported as “effectively transfers”. In the case of `OC[C@H]1O[C@H](OC[C@H]2OC(O)[C@H](O)[C@@H](O)[C@@H]2O)[C@H](O)[C@@H](O)[C@H]1O` (some centres unmarked) [Melibiose], the “Transfer of fructosyl residue” value is reported as “effectively transfers”.

The molecules below were run on β-fructofuranosidase (assay: Inhibition of the enzyme activity by metal ions). Settings: one mM metal ion.
Format: biochemical, Bacillus sp. V230 (FERM BP-5054)
Experimental: The activity of β-fructofuranosidase according to the present invention is assayed as follows: Add 0.2 ml of an enzyme solution to 5 ml of an aqueous solution (pH 6.0) consisting of 1.0 w/v % sucrose, 20 mM acetate buffer, and 5 mM calcium chloride. Incubate the mixture at 40° C. for 10 min, add the Somogyi copper solution to suspend the reaction, and assay the reducing power by the Somogyi-Nelson's method. As a control, provide an enzyme solution pre-heated to inactivate the enzyme at 100° C. for 10 min, and assay the reducing power similarly as above. One unit activity of the enzyme is defined as the amount of enzyme that increases the reducing power of 2 μmol glucose per minute when assayed on the above assay.
In accordance with the method used in the above assay for the enzyme activity, the influence of pH and temperature on the present β-fructofuranosidase activity was studied in the presence of or in the absence of 5 mM calcium chloride. […] The optimum pH of the enzyme was about 5.5-6.0 when incubated at 40° C. for 10 min both in the presence of and in the absence of calcium ion, while the optimum temperature of the enzyme was about 50° C. in the presence of calcium ion and about 45° C. in the absence of calcium ion when incubated at pH 6.0 for 10 min. The pH stability of the present enzyme was determined by incubating in 50 mM buffers with different pHs at 4° C. for 24 hours, and assaying the residual enzyme activity after adjusting the buffers to pH 6. The thermal stability of the enzyme was determined by incubating in 20 mM acetate buffers (pH 6.0) at different temperatures for an hour, and assaying the residual enzyme activity in each buffer after cooling the buffers. The results of pH and thermal stabilities of the present enzyme were respectively in FIGS. 3 and 4. The pH stability of the enzyme was about 5.0-8.0, and the thermal stability was about 45° C. […] One mM Cu^++, Pb^++, Fe^++, Fe^+++ or Hg^++ inhibited the enzyme activity.
With `[Hg+2]` [Hg^++] the “Inhibition of the enzyme activity” value was “inhibited”. `[Fe+2]` [Fe^++] was tested, and the “Inhibition of the enzyme activity” value was “inhibited”. With `[Cu+2]` [Cu^++] the “Inhibition of the enzyme activity” value was “inhibited”. With `[Pb+2]` [Pb^++] the “Inhibition of the enzyme activity” value was “inhibited”. With `[Fe+3]` [Fe^+++] the “Inhibition of the enzyme activity” value was “inhibited”.

The molecules below were run on β-fructofuranosidase (assay: Substrate specificity (TLC)). Settings: 2 w/v % substrate, 2 units/g substrate, 40° C., pH 5.5, 24 hours.
Format: biochemical, Bacillus sp. V230 (FERM BP-5054)
Experimental: A solution with a final concentration of 2 w/v % raffinose, erlose, stachyose, lactose, xylofructoside, maltose, cellobiose, lactose, inulin or laevan as a substrate was mixed with 2 units/g substrate of a β-fructofuranosidase obtained by the method in Experiment 2, and allowed to react enzymatically at 40° C. and pH 5.5 for 24 hours. The reaction mixture was subjected to thin layer chromatography (hereinafter abbreviated as "TLC") using "KIESEL GEL 60", an aluminum plate, 20×20 cm, commercialized by Merck & Co., Inc., NJ, USA, to confirm whether the enzyme acts on these saccharides. The solvent system used in the TLC consisted of 1-butanol, pyridine, and water (=7:3:1 by volume), and samples were developed once at ambient temperature. The saccharides comprising fructose units as constituent saccharides were colored by spraying a 0.5-N phosphoric acid solution containing 0.2 w/v % naphthoresorcinol and heating at 110° C. for about 5 min, while other saccharides were colored by spraying a methanol solution containing 20 w/v % sulfuric acid and heating at 110° C. for about 10 min.
For `OC[C@H]1O[C@H](OC[C@H]2O[C@H](O[C@]3(CO)O[C@H](CO)[C@@H](O)[C@@H]3O)[C@H](O)[C@@H](O)[C@@H]2O)[C@H](O)[C@@H](O)[C@H]1O` [Raffinose], the “Action of the enzyme on the substrate (release of fructose)” value (shortened to “Action of the enzyme on the substrate”) was “acts on”. With `OC[C@H]1O[C@@H](O[C@H]2[C@H](O)[C@@H](O)[C@@H](O[C@]3(CO)O[C@H](CO)[C@@H](O)[C@@H]3O)O[C@@H]2CO)[C@H](O)[C@@H](O)[C@H]1O` [lactosucrose] the “Action of the enzyme on the substrate” value was “acts on”. With `OC[C@H]1O[C@@](CO)(O[C@H]2O[C@H](CO)[C@@H](O[C@H]3O[C@H](CO)[C@@H](O)[C@H](O)[C@H]3O)[C@H](O)[C@H]2O)[C@@H](O)[C@@H]1O` [erlose] the “Action of the enzyme on the substrate” value was “acts on”. For inulin, the “Action of the enzyme on the substrate” value was “does not act on”. In the case of `OC[C@H]1O[C@H](OC[C@H]2O[C@H](OC[C@H]3O[C@H](O[C@]4(CO)O[C@H](CO)[C@@H](O)[C@@H]4O)[C@H](O)[C@@H](O)[C@@H]3O)[C@H](O)[C@@H](O)[C@H]2O)[C@H](O)[C@@H](O)[C@H]1O` [stachyose], the “Action of the enzyme on the substrate” value is reported as “acts on”. `OC[C@H]1O[C@@H](O[C@H]2[C@H](O)[C@@H](O)C(O)O[C@@H]2CO)[C@H](O)[C@@H](O)[C@H]1O` (some centres unmarked) [Lactose] was tested, and the “Action of the enzyme on the substrate” value was “does not act on”. With `OC[C@H]1O[C@@H](O[C@H]2[C@H](O)[C@@H](O)C(O)O[C@@H]2CO)[C@H](O)[C@@H](O)[C@@H]1O` (some centres unmarked) [Cellobiose] the “Action of the enzyme on the substrate” value was “does not act on”. With laevan the “Action of the enzyme on the substrate” value was “does not act on”. In the case of `OC[C@H]1O[C@H](O[C@H]2[C@H](O)[C@@H](O)[C@H](O)O[C@@H]2CO)[C@H](O)[C@@H](O)[C@@H]1O` [Maltose], the “Action of the enzyme on the substrate” value is reported as “does not act on”. For `OC[C@H]1O[C@@](CO)(O[C@H]2O[C@H](CO)[C@@H](O)[C@H](O)[C@H]2O)[C@@H](O)[C@@H]1O` [sucrose], the “Action of the enzyme on the substrate” value was “acts on”. With `OC[C@H]1O[C@@](CO)(O[C@H]2OC[C@@H](O)[C@H](O)[C@H]2O)[C@@H](O)[C@@H]1O` [xylofructoside] the “Action of the enzyme on the substrate” value was “acts on”.

Each molecule was assayed on dd-strain mice (assay: Acute toxicity test, oral). Settings: 7-week-old dd-strain mice.
Format: in vivo
Experimental: Using 7-week-old dd-strain mice, a powder rich in lactosucrose, obtained by the method in Example A-4 described later, was administered orally to the mice for acute toxicity test. No mouse died up to a dose of 15 g/kg mouse, and a higher dose test was impossible. […] Similarly as above, a powder rich in erlose obtained by the method in Example A-6 described later, a syrup rich in xylosylfructoside obtained by the method in Example A-8 described later, a syrup rich in fructosyltrehalose obtained by the method in Example A-11, or a syrup rich in isomaltosylfructoside obtained by the method in Example A-12 described later was orally administered to 7-week-old dd-strain mice for acute toxicity test. No mouse died up to a dose of 15 g/kg mouse, and a higher does test was impossible.
With `OC[C@H]1O[C@@H](O[C@H]2[C@H](O)[C@@H](O)[C@@H](O[C@]3(CO)O[C@H](CO)[C@@H](O)[C@@H]3O)O[C@@H]2CO)[C@H](O)[C@@H](O)[C@H]1O` [lactosucrose] the “Toxicity (in words)” value was “relatively low in toxicity”.
